Measured values reported in US20070060591A1, “Chemokine receptor binding heterocyclic compounds” (priority 1999, published 2007).
Converted amounts (≈) assume the structure as drawn. Read-outs that look alike come from different tables or passages of the source. One block for each compound: values may come before it.

How the values were obtained:
[1] = crosslinker bond, 14-membered ring, Cs2CO3, DMF
[2] = tested on: HIV-1 BaL; assay: Inhibition of infection of U87.CD4.CCR5 by HIV-1 BaL; type: cell-based; conditions: U87.CD4.CCR5 cells
[3] = tested on: HIV-1 (HTLV-IIIB); assay: microbe, parasite or virus in culture; type: cell-based; conditions: MT-4 cells
Protocol: (§1) The compounds of the invention were tested in a screen by the MTT method (J. Virol. Methods […] (1988)). MT-4 cells (2.5×10^4/well) were challenged with HIV-1 (HTLV-IIIB) or HIV-2 (LAV-2 ROD) at a concentration of 100 CCID50 and incubated in the presence of various concentrations of the test compounds, which were added immediately after challenge with the virus. After 5 days culture at 37° C. in a CO2 incubator, the number of viable cells was assessed by the MTT (tetrazolium) method. […] The potential therapeutic usefulness was assessed by calculating a Selectivity Index (SI) corresponding to the ratio of CC50 to EC50.

[4] = tested on: HIV-2 (LAV-2 ROD); assay: Anti-HIV-2 screen by the MTT method in MT-4 cells; type: cell-based; conditions: 100 CCID50, 5 days
Protocol: as §1

[5] = tested on: MT-4 cells; assay: in vitro; type: cell-based
Protocol: as §1

[6] = molecular target: T1, CXCR-4 (Homo sapiens, UniProt P61073); assay: Inhibition of mAb 12G5 binding to CXCR-4 in SUP-T1 cells
T1 construct: endogenous in cells; host or cells: SUP-T1 cells
T1 sequence (P61073 whole entry): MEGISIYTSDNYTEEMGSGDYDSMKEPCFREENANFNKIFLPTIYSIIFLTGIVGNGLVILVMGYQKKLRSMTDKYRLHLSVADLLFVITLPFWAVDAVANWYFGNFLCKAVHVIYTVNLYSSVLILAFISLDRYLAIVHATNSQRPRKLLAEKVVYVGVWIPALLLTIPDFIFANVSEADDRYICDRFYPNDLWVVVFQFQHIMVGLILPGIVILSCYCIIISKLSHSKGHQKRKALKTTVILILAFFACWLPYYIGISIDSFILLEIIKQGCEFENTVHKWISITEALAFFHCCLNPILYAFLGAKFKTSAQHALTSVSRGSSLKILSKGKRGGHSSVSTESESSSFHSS

[7] = molecular target: T1, CXCR-4; assay: Inhibition of signal transduction (Ca2+ flux) induced by SDF-1α binding to CXCR-4 on SUP-T1 cells; type: cell-based; conditions: SDF-1α induced; for inhibition at 1 µg/mL: 1 μg/ml, read-out: % Inhibition of Ca2+ flux (conc)
[8] = in vitro; type: cell-based; conditions: human
Protocol: as §1

[9] = tested on: DBA/1 IFN-γ RKO mice
Protocol: The control group consisted of ten mice that were injected with collagen as discussed below.
The experiments were performed in 8- to 12-week old mice, but in each experiment, the mutant and wild-type mice were age-matched with a 5 day limit. The male to female ratio was kept between 0.8 and 1.3 in each experimental group.
Native chicken collagen type II (EPC, Owensvillle, Mo.) was dissolved in 0.05 M acetic acid at 2 mg/ml by stirring overnight at 6° C., and emulsified in an equal volume of incomplete (IFA) or complete Freund's adjuvant (CFA) containing 1.5 mg/ml heat killed Mycobacterium butyricum (Difco, Detroit, Mich.). Mice were sensitized with a single 100 μl intradermal injection of the emulsion at the base of the tail. Mice were examined daily for signs of arthritis. The disease severity was recorded following a scoring system for each limb. Score 0: normal; score 1: redness and/or swelling in one joint; score 2: redness and/or swelling in more than one joint; score 3: redness and/or welling in the entire paw; score 4: deformity and/or ankylosis.

[10] = from CCOP(=O)(OCC)N(CCCCCCCNC(=O)CBr)CCNS(=O)(=O)c1ccccc1[N+](=O)[O-]; amine bond; K2CO3; acetonitrile; 0.6 mM; 60.0 °C; 24.0 h

IC50 against infection of U87.CD4.CCR5 by HIV-1 BaL [2]: 8.9 µg/mL
Compound: Clc1cc(CN2CCCNCCNCCCNCC2)cc(Cl)n1 [AMD3451, 1-[2,6-Dichloropyrid-4-yl(methylene)]-1,4,8,11-tetraazacyclotetradecane]

IC50 against infection of U87.CD4.CCR5 by HIV-1 BaL [2]: 45.4 µg/mL
Compound: c1ncc2ncn(Cc3ccc(CN4CCCNCCNCCCNCC4)cc3)c2n1 [AMD3472, N-[1,4,8,11-Tetraazacyclotetradecanyl-1,4-phenylenebis(methylene)]-purine]

IC50 [6]: > 2440 nM
inhibition at 1 µg/mL [7]: 36%
Compound: c1ccc(CNCc2ccc(CN3CCCCCCCNCCNCC3)cc2)nc1 [AMD7059, N-[1-(1,4,7-Triazacyclotetra-decanyl)-1,4-phenylenebis(methylene)]-2-(aminomethyl)pyridine]

EC50 HIV-1 (IIIB) ([3]; 100 CCID50, 5 days, MTT): 0.8 µg/mL (≈ 1.88 µM)
EC50 HIV-2 [4]: 10.6 µg/mL (≈ 25 µM)
Compound: Nc1ccccc1CNCc1ccc(CN2CCCNCCNCCCNCC2)cc1 [AMD3517, N-[1,4,8,11-Tetraazacyclotetradecanyl-1,4-phenylenebis(methylene)]-2-amino-benzylamine]
CC50 [5]: 153 µg/mL (≈ 360 µM)

Inhibition of mAb 12G5 binding IC50 [6]: 0.27 µg/mL
Compound: SDF-1α

EC50 HIV-1 (IIIB) ([3]; 100 CCID50, 5 days, MTT): 0.6 µg/mL (≈ 1.46 µM)
EC50 HIV-2 [4]: 10.3 µg/mL (≈ 25.1 µM)
Compound: c1cc(CNCc2ccc(CN3CCCNCCNCCCNCC3)cc2)ccn1 [AMD3500]
CC50 [5]: >250 µg/mL

EC50 HIV-1 (IIIB) ([3]; 100 CCID50, 5 days, MTT): 1.8 µg/mL (≈ 4.24 µM)
EC50 HIV-2 [4]: 3.8 µg/mL (≈ 8.95 µM)
Compound: c1ccc(CCNCc2ccc(CN3CCCNCCNCCCNCC3)cc2)nc1 [AMD3497, N-[1,4,8,11-Tetraazacyclotetradecanyl-1,4-phenylenebis(methylene)]-2-(amino-ethyl)pyridine]
CC50 [5]: >250 µg/mL

IC50 [6]: 2.25 nM
inhibition at 1 µg/mL [7]: 100%
Compound: c1ccc(CNCc2ccc(CN3CCNCCc4cccc(n4)CCNCC3)cc2)nc1 [AMD7050, N-[7-(4,7,10,17-Tetraazabicyclo[13.3.1]heptadeca-1(17),13,15-trienyl)-1,4-phenylenebis(methylene)]-2-(aminomethyl)pyridine]

EC50 HIV-1 (IIIB) ([3]; 100 CCID50, 5 days, MTT): 0.7 µg/mL (≈ 1.68 µM)
EC50 HIV-2 [4]: 9.8 µg/mL (≈ 23.6 µM)
Compound: c1csc(CNCc2ccc(CN3CCCNCCNCCCNCC3)cc2)c1 [AMD3516, N-[1,4,8,11-Tetraazacyclotetradecanyl-1,4-phenylenebis(methylene)]-2-(amino-methyl)thiophene]
CC50 [5]: 158 µg/mL (≈ 380 µM)

EC50 HIV-1 (IIIB) ([3]; 100 CCID50, 5 days, MTT): 0.2 µg/mL (≈ 0.484 µM)
EC50 HIV-2 [4]: 1.0 µg/mL (≈ 2.42 µM)
Compound: c1nc(CCNCc2ccc(CN3CCCNCCNCCCNCC3)cc2)c[nH]1 [AMD3543, N-[1,4,8,11-Tetraazacyclotetradecanyl-1,4-phenylenebis(methylene)]-4-(amino-ethyl)imidazole]
CC50 [5]: 239 µg/mL (≈ 578 µM)

IC50 against infection of U87.CD4.CCR5 by HIV-1 BaL [2]: 32.3 µg/mL
Compound: Clc1ccc(CN2CCCNCCNCCCNCC2)cn1 [AMD3454, 1-[2-Chloropyrid-5-yl(methylene)]-1,4,8,11-tetraazacyclotetradecane]

EC50 HIV-1 (IIIB) ([3]; 100 CCID50, 5 days, MTT): 0.4 µg/mL (≈ 0.977 µM)
EC50 HIV-2 [4]: 2.6 µg/mL (≈ 6.35 µM)
Compound: c1ccc(CNCc2ccc(CN3CCCNCCNCCCNCC3)cc2)cc1 [AMD3529, N-[1,4,8,11-Tetraazacyclotetradecanyl-1,4-phenylenebis(methylene)]-benzylamine]
CC50 [5]: 130 µg/mL (≈ 317 µM)

Second part, the compound before the results:

Compound: CCOP(=O)(OCC)N1CCN(S(=O)(=O)c2ccccc2[N+](=O)[O-])CCCC(F)(F)CCCN(S(=O)(=O)c2ccccc2[N+](=O)[O-])CC1
ring closure, isolated yield ([1]; from bis-[2-(2-nitrobenzenesulfonylamino)-ethyl]-phosphoramidic acid diethyl ester + 1,7-bis(toluene-4-sulfonic acid)-4,4-difluoro-heptyl-ester, 15.4 mM, 85.0 °C): 19%

Compound: CN(Cc1ccc(CN2CCCNCCNCCCNCC2)cc1)Cc1ccccn1 [AMD3538, N-[1,4,8,11-Tetraazacyclotetradecanyl-1,4-phenylenebis(methylene)]-N-methyl-2-(aminomethyl)pyridine]
EC50 HIV-1 (IIIB) ([3]; 100 CCID50, 5 days, MTT): 0.1 µg/mL (≈ 0.235 µM)
EC50 HIV-2 [4]: 6.7 µg/mL (≈ 15.8 µM)
CC50 [5]: 209 µg/mL (≈ 492 µM)

Compound: Cc1cnc(CNCc2ccc(CN3CCCNCCNCCCNCC3)cc2)cn1 [AMD3498, N-[1,4,8,11-Tetraazacyclotetradecanyl-1,4-phenylenebis(methylene)]-(2-amino-methyl-5-methyl)pyrazine]
EC50 HIV-1 (IIIB) ([3]; 100 CCID50, 5 days, MTT): 0.2 µg/mL (≈ 0.47 µM)
EC50 HIV-2 [4]: 7.1 µg/mL (≈ 16.7 µM)
CC50 [5]: >250 µg/mL

Compound: c1ccc(CNCc2ccc(CN3CCNCCNCCc4cccc(c4)CC3)cc2)nc1 [AMD7058, N-[4-[4,7,10-Triazabicyclo[13.3.1]heptadeca-1(17),13,15-trienyl]-1,4-phenylenebis(methylene)]-2-(aminomethyl)pyridine]
IC50 [6]: > 2250 nM
inhibition at 1 µg/mL [7]: 44%

Compound: SCCNCc1ccc(CN2CCCNCCNCCCNCC2)cc1 [AMD3530, N-[1,4,8,11-Tetraazacyclotetradecanyl-1,4-phenylenebis(methylene)]-2-(amino-ethyl)mercaptan]
EC50 HIV-1 (IIIB) ([3]; 100 CCID50, 5 days, MTT): 0.5 µg/mL (≈ 1.32 µM)
EC50 HIV-2 [4]: 2.0 µg/mL (≈ 5.27 µM)
CC50 [5]: 175 µg/mL (≈ 461 µM)

Compound: c1ccc(CNCc2ccc(CN3CCNCCc4cccc(c4)CCNCC3)cc2)nc1 [AMD7051, N-[7-(4,7,10-Triazabicyclo[13.3.1]heptadeca-1(17),13,15-trienyl)-1,4-phenylenebis(methylene)]-2-(aminomethyl)pyridine]
IC50 [6]: 15.8 nM
inhibition at 1 µg/mL [7]: 100%

Compound: bis(3-nitrobenzenesulfonylaminopropyl)ether? + N-(diethoxyphosphoryl)-O,O′-bis(2-methylsulfonyl)diethanolamine
ring closure, isolated yield ([1]; the molecule shown is the open-chain precursor, 18.0 mM, 80.0 °C): 55%

Compound: Nc1ccc(CNCc2ccc(CN3CCCNCCNCCCNCC3)cc2)cc1 [AMD3544, N-[1,4,8,11-Tetraazacyclotetradecanyl-1,4-Ihenylenebis(methylene)]-4-amino-benzylamine]
EC50 HIV-1 (IIIB) ([3]; 100 CCID50, 5 days, MTT): 0.7 µg/mL (≈ 1.65 µM)
EC50 HIV-2 [4]: 3.7 µg/mL (≈ 8.71 µM)
CC50 [5]: 222 µg/mL (≈ 523 µM)

Compound: c1ccc(CNCc2ccc(CN3CCCNCCNCCCNCC3)cc2)nc1 [AMD3465, N-[1,4,8,11-Tetraazacyclotetradecanyl-1,4-phenylenebis(methylene)]-2-(amino-methyl)pyridine]
SI HIV-1 (Selectivity Index, ratio of CC50 to EC50) ([3]; HIV-1 (IIIB)): 3 × 10^4
EC50 ([3]; Human immunodeficiency virus 1, IIIB, MT4, 120 h, 100 CCID50, 5 days, MTT): 0.008 µg/mL (≈ 0.0195 µM)
EC50 ([4]; Human immunodeficiency virus 2, MT4, 120 h): 0.032 µg/mL (≈ 0.0779 µM)
CC50 at 5 days [8]: > 250 µg/mL
IC50 [6]: 7.31 nM
IC50 [7]: 2.44 nM

Compound: c1cc(CN2CCCNCCNCCCNCC2)ccc1CN1CCCNCCNCCCNCC1 [AMD3100]
IC50 ([2]; Human immunodeficiency virus 1, BAL, read-out: IC50 against infection of U87.CD4.CCR5 by HIV-1 BaL): > 100 µg/mL
animals demonstrating arthritis ([9]; 14 days after treatment, i.v. osmotic pump, 5 mg/ml over 14 days, control 7 of ten): 1 of the 8
body weight loss of treated animals compared with control animals ([9]; collagen-injected mice): did not demonstrate any significant body weight loss
time until the single treated animal developed arthritic pathology ([9]; post-treatment): > 20 days

Compound: CCOP(=O)(OCC)N1CCN(S(=O)(=O)c2ccccc2[N+](=O)[O-])CCCC(F)CCCN(S(=O)(=O)c2ccccc2[N+](=O)[O-])CC1
ring closure, isolated yield ([1]; from bis-[2-(2-nitro-benzenesulfonylamino)-ethyl]-phosphoramidic acid diethyl ester + 1,7-bis(toluene-4-sulfonic acid)-4-fluoro-heptyl-ester, 15.9 mM, 85.0 °C): 55%

Compound: CCOP(=O)(OCC)N1CCCCCCCNC(=O)CN(S(=O)(=O)c2ccccc2[N+](=O)[O-])CC1
ring closure, yield of all isomers [10]: 90%

Compound: c1ccc(CNCc2ccc(CN3CCNCCCCCCCNCC3)cc2)nc1 [AMD7049, N-[4-(1,4,7-Triazacyclotetra-decanyl)-1,4-phenylenebis(methylene)]-2-(aminomethyl)pyridine]
IC50 [6]: 127 nM
inhibition at 1 µg/mL [7]: 100%

Compound: c1ccc(CNCc2ccc(CN3CCNCCNCCc4cccc(n4)CC3)cc2)nc1 [AMD7063, N-[4-[4,7,10,17-Tetraazabicyclo[13.3.1]heptadeca-1(17),13,15-trienyl]-1,4-phenylenebis(methylene)]-2-(aminomethyl)pyridine]
IC50 [6]: 20.2 nM
inhibition at 1 µg/mL [7]: 100%

Compound: bis(3-nitrobenzenesulfonylaminopropyl)ether + Methanesulfonic acid, 5-methanesulfonyloxy-3-(4-{[( [...]
ring closure, isolated yield ([1]; the molecule shown is the open-chain precursor, 6.3 mM, 80.0 °C): 51%

Compound: c1ccc(N2CCN(Cc3ccc(CN4CCCNCCNCCCNCC4)cc3)CC2)cc1 [AMD3526, 1-[1,4,8,11-Tetraazacyclotetradecanyl-1,4-phenylenebis(methylene)]-4-phenylpiperazine]
IC50 against infection of U87.CD4.CCR5 by HIV-1 BaL [2]: 82 µg/mL
